In patent US11884647B2, “Compounds and methods for targeting pathogenic blood vessels” (THE REGENTS OF THE UNIVERSITY OF CALIFORNIA, priority 2019, dated 2024):

System: tumor endothelial cells (LL/2 lung cancer tumor)
Test: Lung LL2 ex vivo model of tumor angiogenesis
Assay type: cell-based, mouse
Settings: for cytotoxicity at 40 µM: Mus musculus, Endothelial cell, 48 h, read-out: Cell death
How it was run: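 Read-out is live/dead fluorescence imaging (fluorescein diacetate green, propidium iodide red, 10 min at 37° C) at 2×, taken e.g. 48 h after drug addition. Fragments of mouse LL2 tumor are cultured in Matrigel with endothelial growth medium, usually 4 days, until new endothelial cells grow out, then treated.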

[1] = Lung LL2 ex vivo, Conc. 20 μm, (24 hrs)

| Compound | Cell death (24 hrs) [1] | Morphology observations (24 hrs) [1] | cytotoxicity at 40 µM |
| --- | --- | --- | --- |
| CCCCCCCCCCOc1ccc(S(=O)(=O)c2cnc3ccc([S+](C)[O-])cc3c2N2CCC(N3CCC(N4CCN(CCO)CC4)CC3)CC2)cc1 (centres unmarked) [compound 292, 2-(4-(1′-(3-((4-(decyloxy)phenyl)sulfonyl)-6-(methylsulfinyl)quinolin-4-yl)-[1,4′-bipiperidin]-4-yl)piperazin-1-yl)ethan-1-ol] | 10% | * (50% or less of cells vesicularize in cell shape) |  |
| CCN(c1c(S(=O)(=O)c2ccc(OC)cc2)cnc2cc(OC)c(OC)cc12)C(C)C [compound 294, N-ethyl-N-isopropyl-6,7-dimethoxy-3-((4-methoxyphenyl)sulfonyl)quinolin-4-amine] |  |  | 50% |
| CCN(CC)CCN(CC)c1c(S(=O)(=O)c2ccc(OC)cc2)cnc2cc(OC)c(OC)cc12 [compound 296, N1-(6,7-dimethoxy-3-((4-methoxyphenyl)sulfonyl)quinolin-4-yl)-N1,N2,N2-triethylethane-1,2-diamine] |  |  | 20% |
| CCN(CC)CCC(C)Nc1c(S(=O)(=O)c2ccc(OC)cc2)cnc2cc(OC)c(OC)cc12 (centres unmarked) [compound 300, N3-(6,7-dimethoxy-3-((4-methoxyphenyl)sulfonyl)quinolin-4-yl)-N1,N1-diethylbutane-1,3-diamine] |  |  | 20% |
| CCN(CC)CCCN1CCN(c2c(S(=O)(=O)c3ccc(OC)cc3)cnc3cc(OC)c(OC)cc23)CC1 [compound 302, 3-(4-(6,7-dimethoxy-3-((4-methoxyphenyl)sulfonyl)quinolin-4-yl)piperazin-1-yl)-N,N-diethylpropan-1-amine] |  |  | 70% |
| COc1ccc(S(=O)(=O)c2cnc3cc(OC)c(OC)cc3c2N2C[C@@H]3C[C@H]2CN3C)cc1 [compound 306, 6,7-dimethoxy-3-((4-methoxyphenyl)sulfonyl)-4-((1S,4S)-5-methyl-2,5-diazabicyclo[2.2.1]heptan-2-yl)quinoline] |  |  | 40% |
| COc1ccc(S(=O)(=O)c2cnc3cc(OC)c(OC)cc3c2N2CCC(O)(c3ccccc3)CC2)cc1 [compound 308, 1-(6,7-dimethoxy-3-((4-methoxyphenyl)sulfonyl)quinolin-4-yl)-4-phenylpiperidin-4-ol] |  |  | 20% |
| CNC(=O)c1ccc(C2CCN(c3c(S(=O)(=O)c4ccc(OC)cc4)cnc4cc(OC)c(OC)cc34)CC2)cc1 [compound 310, 4-(1-(6,7-dimethoxy-3-((4-methoxyphenyl)sulfonyl)quinolin-4-yl)piperidin-4-yl)-N-methylbenzamide] |  |  | 10% |
| COc1ccc(C2CCN(c3c(S(=O)(=O)c4ccc(OC)cc4)cnc4cc(OC)c(OC)cc34)CC2)cc1 [compound 311, 6,7-dimethoxy-4-(4-(4-methoxyphenyl)piperidin-1-yl)-3-((4-methoxyphenyl)sulfonyl)quinoline] |  |  | 30% |
| COc1ccc(S(=O)(=O)c2cnc3cc(OC)c(OC)cc3c2N2CCC(c3ccc(CN4CCCC4)cc3)CC2)cc1 [compound 312, 6,7-dimethoxy-3-((4-methoxyphenyl)sulfonyl)-4-(4-(4-(pyrrolidin-1-ylmethyl)phenyl)piperidin-1-yl)quinoline] |  |  | 100% |
| CCOC(=O)c1ccc(N2CCN(c3c(S(=O)(=O)c4ccc(OC)cc4)cnc4cc(OC)c(OC)cc34)CC2)cc1 [compound 317, ethyl 4-(4-(6,7-dimethoxy-3-((4-methoxyphenyl)sulfonyl)quinolin-4-yl)piperazin-1-yl)benzoate] |  |  | 30% |
| COc1ccc(N2CCN(c3c(S(=O)(=O)c4ccc(OC)cc4)cnc4cc(OC)c(OC)cc34)CC2=O)cc1 [compound 318] |  |  | 30% |
| COc1ccc(S(=O)(=O)c2cnc3cc(OC)c(OC)cc3c2N2CCC(N3CCCCC3)CC2)cc1 [compound 320, 4-([1,4′-bipiperidin]-1′-yl)-6,7-dimethoxy-3-((4-methoxyphenyl)sulfonyl)quinoline] |  |  | 30% |
